Measurements taken from the NIST ThermoML archive (doi:10.1016/j.jct.2011.08.016).

Test: xn = mol fraction of the nth substance listed
Conditions: Liquid, Vibrating tube method

CCCCCCCCCC [decane] + CCCCCCC
Conditions | mass density [kg/m3]
343.11 K, 10000 kPa, x2 = 0.2594 | 691.9
343.11 K, 10000 kPa, x2 = 0.952 | 656.24
343.11 K, 11000 kPa, x2 = 0.2594 | 692.89
343.11 K, 11000 kPa, x2 = 0.952 | 657.38
343.11 K, 12000 kPa, x2 = 0.2594 | 693.86
343.11 K, 12000 kPa, x2 = 0.952 | 658.49
343.11 K, 13000 kPa, x2 = 0.2594 | 694.82
343.11 K, 13000 kPa, x2 = 0.952 | 659.59
343.11 K, 14000 kPa, x2 = 0.2594 | 695.76
343.11 K, 14000 kPa, x2 = 0.952 | 660.67
343.11 K, 15000 kPa, x2 = 0.2594 | 696.69
343.11 K, 15000 kPa, x2 = 0.952 | 661.74
343.11 K, 16000 kPa, x2 = 0.2594 | 697.6
343.11 K, 16000 kPa, x2 = 0.952 | 662.78
343.11 K, 17000 kPa, x2 = 0.2594 | 698.5
343.11 K, 17000 kPa, x2 = 0.952 | 663.81
343.11 K, 18000 kPa, x2 = 0.2594 | 699.38
343.11 K, 18000 kPa, x2 = 0.952 | 664.84
343.11 K, 19000 kPa, x2 = 0.2594 | 700.22
343.11 K, 19000 kPa, x2 = 0.952 | 665.84
343.11 K, 20000 kPa, x2 = 0.2594 | 701.09
343.11 K, 20000 kPa, x2 = 0.952 | 666.82
343.11 K, 21000 kPa, x2 = 0.2594 | 701.92
343.11 K, 21000 kPa, x2 = 0.952 | 667.78
343.11 K, 22000 kPa, x2 = 0.2594 | 702.73
343.11 K, 22000 kPa, x2 = 0.952 | 668.7
343.11 K, 23000 kPa, x2 = 0.2594 | 703.51
343.11 K, 23000 kPa, x2 = 0.952 | 669.62
343.11 K, 24000 kPa, x2 = 0.2594 | 704.28
343.11 K, 24000 kPa, x2 = 0.952 | 670.52
343.11 K, 25000 kPa, x2 = 0.2594 | 705.05
343.11 K, 25000 kPa, x2 = 0.952 | 671.4
353.06 K, 1000 kPa, x2 = 0.0531 | 682.62
353.06 K, 2000 kPa, x2 = 0.0531 | 683.77
353.06 K, 3000 kPa, x2 = 0.0531 | 684.88
353.06 K, 4000 kPa, x2 = 0.0531 | 685.98
353.06 K, 5000 kPa, x2 = 0.0531 | 687.07
353.06 K, 6000 kPa, x2 = 0.0531 | 688.13
353.06 K, 7000 kPa, x2 = 0.0531 | 689.17
353.06 K, 8000 kPa, x2 = 0.0531 | 690.21
353.06 K, 9000 kPa, x2 = 0.0531 | 691.24
353.06 K, 10000 kPa, x2 = 0.0531 | 692.24
353.06 K, 11000 kPa, x2 = 0.0531 | 693.24
353.06 K, 12000 kPa, x2 = 0.0531 | 694.22
353.06 K, 13000 kPa, x2 = 0.0531 | 695.18
353.06 K, 14000 kPa, x2 = 0.0531 | 696.13
353.06 K, 15000 kPa, x2 = 0.0531 | 697.07
353.06 K, 16000 kPa, x2 = 0.0531 | 698
353.06 K, 17000 kPa, x2 = 0.0531 | 698.9
353.06 K, 18000 kPa, x2 = 0.0531 | 699.8
353.06 K, 19000 kPa, x2 = 0.0531 | 700.69
353.06 K, 20000 kPa, x2 = 0.0531 | 701.57
353.06 K, 21000 kPa, x2 = 0.0531 | 702.43
353.06 K, 22000 kPa, x2 = 0.0531 | 703.3
353.06 K, 23000 kPa, x2 = 0.0531 | 704.13
353.06 K, 24000 kPa, x2 = 0.0531 | 704.96
353.06 K, 25000 kPa, x2 = 0.0531 | 705.78
353.08 K, 1000 kPa, x2 = 0.5219 | 662.57
353.08 K, 1000 kPa, x2 = 0.777 | 647.84
353.08 K, 2000 kPa, x2 = 0.5219 | 663.78
353.08 K, 2000 kPa, x2 = 0.777 | 649.19
353.08 K, 3000 kPa, x2 = 0.5219 | 664.95
353.08 K, 3000 kPa, x2 = 0.777 | 650.47
353.08 K, 4000 kPa, x2 = 0.5219 | 666.13
353.08 K, 4000 kPa, x2 = 0.777 | 651.73
353.08 K, 5000 kPa, x2 = 0.5219 | 667.28
353.08 K, 5000 kPa, x2 = 0.777 | 653.01
353.08 K, 6000 kPa, x2 = 0.5219 | 668.44
353.08 K, 6000 kPa, x2 = 0.777 | 654.25
353.08 K, 7000 kPa, x2 = 0.5219 | 669.57
353.08 K, 7000 kPa, x2 = 0.777 | 655.46
353.08 K, 8000 kPa, x2 = 0.5219 | 670.7
353.08 K, 8000 kPa, x2 = 0.777 | 656.67
353.08 K, 9000 kPa, x2 = 0.5219 | 671.82
353.08 K, 9000 kPa, x2 = 0.777 | 657.88
353.08 K, 10000 kPa, x2 = 0.5219 | 672.93
353.08 K, 10000 kPa, x2 = 0.777 | 659.06
353.08 K, 11000 kPa, x2 = 0.5219 | 674.03
353.08 K, 11000 kPa, x2 = 0.777 | 660.22
353.08 K, 12000 kPa, x2 = 0.5219 | 675.1
353.08 K, 12000 kPa, x2 = 0.777 | 661.36
353.08 K, 13000 kPa, x2 = 0.5219 | 676.17
353.08 K, 13000 kPa, x2 = 0.777 | 662.49
353.08 K, 14000 kPa, x2 = 0.5219 | 677.22
353.08 K, 14000 kPa, x2 = 0.777 | 663.61
353.08 K, 15000 kPa, x2 = 0.5219 | 678.26
353.08 K, 15000 kPa, x2 = 0.777 | 664.7
353.08 K, 16000 kPa, x2 = 0.5219 | 679.28
353.08 K, 16000 kPa, x2 = 0.777 | 665.77
353.08 K, 17000 kPa, x2 = 0.5219 | 680.26
353.08 K, 17000 kPa, x2 = 0.777 | 666.82
353.08 K, 18000 kPa, x2 = 0.5219 | 681.28
353.08 K, 18000 kPa, x2 = 0.777 | 667.86
353.08 K, 19000 kPa, x2 = 0.5219 | 682.2
